Data from ChEMBL document CHEMBL3885861, “Open TG-GATES”.

Organism: Rattus norvegicus
Experiment: Open TG-GATES - Regimen: Daily Repeat
Format: toxicity, organism-based, Sprague-Dawley
Parameters: regimen Daily Repeat, gender Male, age 6 weeks
Settings: in vivo, po, 200 mg/kg, route gavage, dose level High; for APTT / Bas / Eos / Fbg / Hb / Ht / Lym / MCH / MCHC / MCV / Mono / Neu / PT / Plat / RBC / Ret / WBC: tissue Blood; for KIDNEY_L / KIDNEY_R / KIDNEY_TOTAL: tissue Kidney; for LIVER: tissue Liver; for A/G / ALP / ALT / AST / BUN / CRE / Ca / Cl / DBIL / GLC / IP / K / LDH / Na / PL / RALB / TBIL / TC / TG / TP / gamma-GTP: tissue Plasma

`Cn1c(=O)c2[nH]cnc2n(C)c1=O.O` [THEOPHYLLINE] showed a TERMINAL_BW (72 h, time 3 day) of 221.1 g, an APTT (72 h, time 3 day) of 22.1 s and a Bas (72 h, time 3 day) of 0%. It also gave an Eos (72 h, time 3 day) of 0.5%, a Fbg (72 h, time 3 day) of 438.5 mg/dL and a Hb (72 h, time 3 day) of 15 g/dL. For the same compound, the Ht (72 h, time 3 day) was 44.8%, the Lym (72 h, time 3 day) was 77.8% and the MCH (72 h, time 3 day) was 21.1 pg. The MCHC (72 h, time 3 day) was 33.5%, the MCV (72 h, time 3 day) was 63 fL and the Mono (72 h, time 3 day) was 3.8%. It also gave a Neu (72 h, time 3 day) of 15.8%, a PT (72 h, time 3 day) of 16.7 s and a Plat (72 h, time 3 day) of 134.2 x10_4/uL. The RBC (72 h, time 3 day) was 711.5 x10_4/ul, the Ret (72 h, time 3 day) was 6.6% and the WBC (72 h, time 3 day) was 107.4 x10_2/uL. The KIDNEY_L (72 h, time 3 day) was 0.9 g, the KIDNEY_R (72 h, time 3 day) was 0.9 g and the KIDNEY_TOTAL (72 h, time 3 day) was 1.9 g. For the same compound, the LIVER (72 h, time 3 day) was 9.5 g, the A/G (72 h, time 3 day) was 1.2 and the ALP (72 h, time 3 day) was 1278.8 IU/L. It also gave an ALT (72 h, time 3 day) of 42.5 IU/L, an AST (72 h, time 3 day) of 73.2 IU/L and a BUN (72 h, time 3 day) of 15.2 mg/dL. The CRE (72 h, time 3 day) was 0.2 mg/dL, the Ca (72 h, time 3 day) was 10.9 mg/dL and the Cl (72 h, time 3 day) was 106.8 meq/L. For the same compound, the DBIL (72 h, time 3 day) was 0 mg/dL, the GLC (72 h, time 3 day) was 178.8 mg/dL and the IP (72 h, time 3 day) was 7.3 mg/dL. For the same compound, the K (72 h, time 3 day) was 4.3 meq/L, the LDH (72 h, time 3 day) was 198.8 IU/L and the Na (72 h, time 3 day) was 141.8 meq/L. For the same compound, the PL (72 h, time 3 day) was 122.8 mg/dL, the RALB (72 h, time 3 day) was 3.1 g/dL and the TBIL (72 h, time 3 day) was 0.0075 mg/dL. For the same compound, the TC (72 h, time 3 day) was 75 mg/dL, the TG (72 h, time 3 day) was 37.8 mg/dL and the TP (72 h, time 3 day) was 5.7 g/dL. It also gave a gamma-GTP (72 h, time 3 day) of 1.5 IU/L, a TERMINAL_BW ([…], time 7 day) of 254.4 g and a TERMINAL_BW ([…], time 14 day) of 288.8 g. It also gave a TERMINAL_BW ([…], time 28 day) of 371.8 g, an APTT ([…], time 7 day) of 23 s and a Bas ([…], time 7 day) of 0%. The Eos ([…], time 7 day) was 0.2%, the Fbg ([…], time 7 day) was 354 mg/dL and the Hb ([…], time 7 day) was 14.6 g/dL. It also gave a Ht ([…], time 7 day) of 43%, a Lym ([…], time 7 day) of 67.4% and an MCH ([…], time 7 day) of 20.2 pg. For the same compound, the MCHC ([…], time 7 day) was 33.9%, the MCV ([…], time 7 day) was 59.7 fL and the Mono ([…], time 7 day) was 4.6%. It also gave a Neu ([…], time 7 day) of 26%, a PT ([…], time 7 day) of 16.7 s and a Plat ([…], time 7 day) of 117.7 x10_4/uL. The RBC ([…], time 7 day) was 720.6 x10_4/ul, the Ret ([…], time 7 day) was 6% and the WBC ([…], time 7 day) was 116.9 x10_2/uL. The APTT ([…], time 14 day) was 24.8 s, the Bas ([…], time 14 day) was 0% and the Eos ([…], time 14 day) was 0.2%. For the same compound, the Fbg ([…], time 14 day) was 337 mg/dL, the Hb ([…], time 14 day) was 15.5 g/dL and the Ht ([…], time 14 day) was 45.7%. For the same compound, the Lym ([…], time 14 day) was 77%, the MCH ([…], time 14 day) was 20.1 pg and the MCHC ([…], time 14 day) was 33.8%. The MCV ([…], time 14 day) was 59.5 fL, the Mono ([…], time 14 day) was 3.2% and the Neu ([…], time 14 day) was 18.2%. For the same compound, the PT ([…], time 14 day) was 16.1 s, the Plat ([…], time 14 day) was 102.3 x10_4/uL and the RBC ([…], time 14 day) was 767.8 x10_4/ul. It also gave a Ret ([…], time 14 day) of 4.7%, a WBC ([…], time 14 day) of 128.3 x10_2/uL and an APTT ([…], time 28 day) of 27.4 s. For the same compound, the Bas ([…], time 28 day) was 0%, the Eos ([…], time 28 day) was 1% and the Fbg ([…], time 28 day) was 349 mg/dL. For the same compound, the Hb ([…], time 28 day) was 16.1 g/dL, the Ht ([…], time 28 day) was 46.7% and the Lym ([…], time 28 day) was 76.5%. For the same compound, the MCH ([…], time 28 day) was 19.9 pg, the MCHC ([…], time 28 day) was 34.5% and the MCV ([…], time 28 day) was 57.7 fL. It also gave a Mono ([…], time 28 day) of 2.5%, a Neu ([…], time 28 day) of 19% and a PT ([…], time 28 day) of 16.6 s. It also gave a Plat ([…], time 28 day) of 91.7 x10_4/uL, an RBC ([…], time 28 day) of 810 x10_4/ul and a Ret ([…], time 28 day) of 3.6%. The WBC ([…], time 28 day) was 133.1 x10_2/uL, the KIDNEY_L ([…], time 7 day) was 1.1 g and the KIDNEY_R ([…], time 7 day) was 1.1 g. It also gave a KIDNEY_TOTAL ([…], time 7 day) of 2.1 g, a KIDNEY_L ([…], time 14 day) of 1.2 g and a KIDNEY_R ([…], time 14 day) of 1.3 g. It also gave a KIDNEY_TOTAL ([…], time 14 day) of 2.5 g, a KIDNEY_L ([…], time 28 day) of 1.4 g and a KIDNEY_R ([…], time 28 day) of 1.4 g. For the same compound, the KIDNEY_TOTAL ([…], time 28 day) was 2.8 g, the LIVER ([…], time 7 day) was 11.2 g and the LIVER ([…], time 14 day) was 11.7 g. The LIVER ([…], time 28 day) was 15.5 g, the A/G ([…], time 7 day) was 1.2 and the ALP ([…], time 7 day) was 1736.2 IU/L. It also gave an ALT ([…], time 7 day) of 58.6 IU/L, an AST ([…], time 7 day) of 79 IU/L and a BUN ([…], time 7 day) of 16.6 mg/dL. The CRE ([…], time 7 day) was 0.2 mg/dL, the Ca ([…], time 7 day) was 10.8 mg/dL and the Cl ([…], time 7 day) was 104.2 meq/L. It also gave a DBIL ([…], time 7 day) of 0 mg/dL, a GLC ([…], time 7 day) of 173 mg/dL and an IP ([…], time 7 day) of 8.2 mg/dL. It also gave a K ([…], time 7 day) of 4.4 meq/L, an LDH ([…], time 7 day) of 182.6 IU/L and a Na ([…], time 7 day) of 142 meq/L. The PL ([…], time 7 day) was 134.6 mg/dL, the RALB ([…], time 7 day) was 3.3 g/dL and the TBIL ([…], time 7 day) was 0.01 mg/dL. It also gave a TC ([…], time 7 day) of 74 mg/dL, a TG ([…], time 7 day) of 65.6 mg/dL and a TP ([…], time 7 day) of 5.9 g/dL. It also gave a gamma-GTP ([…], time 7 day) of 2.2 IU/L, an A/G ([…], time 14 day) of 1.2 and an ALP ([…], time 14 day) of 1300.2 IU/L. It also gave an ALT ([…], time 14 day) of 54 IU/L, an AST ([…], time 14 day) of 85 IU/L and a BUN ([…], time 14 day) of 13.8 mg/dL. It also gave a CRE ([…], time 14 day) of 0.2 mg/dL, a Ca ([…], time 14 day) of 10.4 mg/dL and a Cl ([…], time 14 day) of 104.8 meq/L. For the same compound, the DBIL ([…], time 14 day) was 0 mg/dL, the GLC ([…], time 14 day) was 175.5 mg/dL and the IP ([…], time 14 day) was 8.7 mg/dL. For the same compound, the K ([…], time 14 day) was 4.2 meq/L, the LDH ([…], time 14 day) was 137.2 IU/L and the Na ([…], time 14 day) was 141.8 meq/L. The PL ([…], time 14 day) was 128.8 mg/dL, the RALB ([…], time 14 day) was 3.2 g/dL and the TBIL ([…], time 14 day) was 0.02 mg/dL. For the same compound, the TC ([…], time 14 day) was 70.5 mg/dL, the TG ([…], time 14 day) was 64.2 mg/dL and the TP ([…], time 14 day) was 5.8 g/dL. For the same compound, the gamma-GTP ([…], time 14 day) was 2.2 IU/L, the A/G ([…], time 28 day) was 1.1 and the ALP ([…], time 28 day) was 1103 IU/L. It also gave an ALT ([…], time 28 day) of 54 IU/L, an AST ([…], time 28 day) of 92.5 IU/L and a BUN ([…], time 28 day) of 16.5 mg/dL. For the same compound, the CRE ([…], time 28 day) was 0.2 mg/dL, the Ca ([…], time 28 day) was 10.8 mg/dL and the Cl ([…], time 28 day) was 105 meq/L. It also gave a DBIL ([…], time 28 day) of 0 mg/dL, a GLC ([…], time 28 day) of 186.5 mg/dL and an IP ([…], time 28 day) of 7.5 mg/dL. The K ([…], time 28 day) was 4.1 meq/L, the LDH ([…], time 28 day) was 140.5 IU/L and the Na ([…], time 28 day) was 143 meq/L. For the same compound, the PL ([…], time 28 day) was 133.5 mg/dL, the RALB ([…], time 28 day) was 3.3 g/dL and the TBIL ([…], time 28 day) was 0.025 mg/dL. The TC ([…], time 28 day) was 66 mg/dL, the TG ([…], time 28 day) was 90 mg/dL and the TP ([…], time 28 day) was 6.5 g/dL. The gamma-GTP ([…], time 28 day) was 2.5 IU/L.
